# “And” between values parts separate entries of the source, which are not always exact repeats. Equal entries are not always repeated. “Also recorded” adds a separate entry of the source.
# Key:
# OA-NOS [1] = experiment: Sensitivity of OA-NOS to agents (Table 3 comparison)
# COX-2 = biological target: T1, COX-2 (Mus musculus, UniProt Q05769); assay type: cell-based, murine; conditions: 3 mM
# T1 construct: Cells were incubated with LPS (1 μg/ml) for 16 h to induce COX-2; endogenous in cells; host or cells: RAW 264.7 murine macrophages, LPS-induced
# T1 sequence (Q05769 18-604): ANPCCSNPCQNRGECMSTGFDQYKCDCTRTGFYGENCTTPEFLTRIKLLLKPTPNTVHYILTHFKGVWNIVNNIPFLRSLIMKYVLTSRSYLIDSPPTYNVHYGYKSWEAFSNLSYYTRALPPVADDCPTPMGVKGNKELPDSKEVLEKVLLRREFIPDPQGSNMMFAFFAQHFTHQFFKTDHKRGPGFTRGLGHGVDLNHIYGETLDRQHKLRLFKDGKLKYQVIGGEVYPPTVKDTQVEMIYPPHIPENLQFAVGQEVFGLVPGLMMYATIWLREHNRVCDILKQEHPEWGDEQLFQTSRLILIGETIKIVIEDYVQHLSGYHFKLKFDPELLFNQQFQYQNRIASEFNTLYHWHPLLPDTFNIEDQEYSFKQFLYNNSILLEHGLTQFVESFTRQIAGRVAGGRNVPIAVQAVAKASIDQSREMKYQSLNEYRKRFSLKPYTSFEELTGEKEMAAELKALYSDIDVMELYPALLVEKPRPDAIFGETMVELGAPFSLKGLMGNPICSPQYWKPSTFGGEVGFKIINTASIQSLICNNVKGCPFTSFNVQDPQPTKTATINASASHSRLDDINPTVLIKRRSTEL
# NF-κB = conditions: cited from earlier work
# OA-NOS [2] = experiment: Nitrite release by OA-affected articular cartilage, ex vivo organ culture; assay type: cell-based, human
# iNOS [3] = experiment: In vitro iNOS catalytic activity in cell-free extracts preincubated with drug (L-[3H]-arginine to L-[3H]-citrulline); assay type: biochemical, murine; conditions: 20 min preincubation
# iNOS [4] = experiment: iNOS protein expression, Western blot, LPS-treated RAW 264.7 cells; assay type: cell-based, murine
# Protocol: Western Blot Analysis. Equal amounts of protein (50 μg) estimated by BCA reagent (Pierce, Rockford, Ill.) were loaded onto SDS-PAGE gels and stained to verify the concentrations of various protein fractions by examining the intensities of the protein bands on the gels. Western blot analysis was carried out from the same cell extracts. The Western-blotted membrane was probed with a specific anti-iNOS monoclonal antibody, as specified by Transduction Laboratories (Lexington, Ky.). The blots were developed using the ECL Western blot system (Amersham, Arlington Heights, Ill.). Quantitation of the bands was performed using a densitometer from Molecular Dynamics (Sunnyville, Calif.).
# The protein expression data are represented as
# ND = not done. NS = not significant.
# A Western blot analysis of iNOS protein was carried out in cells treated with […] LPS in the presence and absence of NSAIDs for 16-18 h.
# iNOS [5] = experiment: Radiolabelling of iNOS by acetyl-labelled aspirin in RAW 264.7 cells, SDS-PAGE; assay type: biochemical, murine; conditions: radiolabelled aspirin, 30 minutes
# Protocol: Unstimulated and LPS stimulated murine macrophage (RAW 264.7) cells were incubated with radiolabelled aspirin (acetyl group labelled) as described by Lecomte et al. (J. Biol. Chem. 269:13207-13215, 1994). After 30 minutes, the extracts were run on an SDS-PAGE gel and analyzed by phosphoimager. […] The intensity of label (^14 C) is increased, where iNOS synthesis was induced by LPS.
# However, the possibility that inhibition of iNOS catalytic activity may be due to acetylation of cofactors/precursors of iNOS has not been ruled out.
# COX = conditions: cited from earlier work
# iNOS [6] = experiment: Nitrite accumulation in LPS-stimulated RAW 264.7 murine macrophages (Griess method); assay type: cell-based; conditions: for further inhibition of nitrite accumulation above that observed at 3 mM: suprapharmacological
# Protocol: Effects of NSAIDs on Nitrite Accumulation. […] The expression and activity of iNOS were monitored by estimation of the stable end-product: nitrites.
# concentrations of NSAIDs for 2 h followed by addition of 100 ng/ml of LPS
# After 16-18 h of incubation, the medium was used to estimate the
# accumulation of nitrite by the Greiss method (Green et al., Anal Biochem.
# The specific activity of iNOS was determined in cellfre
# extracts at a given time period as described. The nitrite and specific
# activity data are representative of mean ± SD value, as determined by
# student t test, for 10 and 4 independent experiments, respectively. The p
# values described are compared with LPSstimulated cells. […]
structure (smiles),measurement,setting,value
"CC(=O)Oc1ccccc1C(=O)O [Aspirin, aspirin]",sensitivity of OA-NOS,OA-NOS [1],blocked; also recorded: shows sensitivity
same,% inhibition of COX-2 specific activity,COX-2,> 75%
same,activation of NF-κB,"NF-κB; 5-20 mM, suprapharmacological",interfere in the activation of NF-κB
same,NF-κB-dependent transcription,"NF-κB; aspirin 3 mM, sodium salicylate 5 mM, luciferase reporter",inhibit NF-κB-dependent transcription
same,"NF-κB activation, gel shift assays",NF-κB; same concentrations (aspirin 3 mM; sodium salicylate 5 mM),no significant effect on NF-κB activation
same,effect on nitrite accumulation / NOS expression in OA cartilage,OA-NOS [2],blocked iNOS expression in OA cartilage
same,rank order of inhibition of spontaneous nitrite accumulation,OA-NOS [2],aspirin>indomethacin>sodium salicylate
same,inhibition at 2000 µM,"OA-NOS [2]; 2 mM, human osteoarthritic cartilage ex vivo, read-out: suppression of accumulation of nitrites",≥ 50%
same,inhibition of iNOS catalytic activity in cell-free extracts,iNOS [3]; 0.1 mM,10-12%
same,inhibition of iNOS catalytic activity in cell-free extracts (specific activity in in vitro assay),iNOS [3]; 1 mM,~ 45% and 45-68%
same,decrease of iNOS expression,"iNOS [4]; 10 mM, Western blot, 10000 µM",~ 70%
same,"effect on iNOS expression, Western blot","iNOS [4]; LPS, 16-18 h, indomethacin 5 μM",significant decrease in the expression of iNOS
same,inhibition at 10000 µM,"iNOS [4]; Mus musculus, RAW264.7, read-out: decrease of iNOS expression, 10 mM, Western blot",69%
same,inhibition at 3000 µM,"iNOS [4]; Mus musculus, RAW264.7, read-out: inhibition of iNOS protein expression, 3 mM, approximate, densitometry",~53%
same,acetylation of iNOS,iNOS [5],shows acetylation of iNOS
same,COX inhibition,COX,an effective inhibitor of COX
same,cyclooxygenase and peroxidase activity of COX,COX,inactivates the cyclooxygenase and not the peroxidase activity
same,"Nitrite released, Nitrite","iNOS [6]; 1 mM, LPS 100 ng/ml, 16-18 h",26.6 ± 4.3 µM
same,"Nitrite released, Nitrite","iNOS [6]; 2 mM, LPS 100 ng/ml, 16-18 h",22.9 ± 5.3 µM
same,"Nitrite released, Nitrite","iNOS [6]; 3 mM, LPS 100 ng/ml, 16-18 h",20.3 ± 3.9 µM
same,further inhibition of nitrite accumulation above that observed at 3 mM,iNOS [6]; 5 mM,50%
same,further inhibition of nitrite accumulation above that observed at 3 mM,iNOS [6]; 10 mM,80%
same,inhibition at 1000 µM,"iNOS [6]; Mus musculus, RAW264.7, read-out: Nitrite released, % inhibition, 1 mM, LPS 100 ng/ml, 16-18 h",10%
same,inhibition at 2000 µM,"iNOS [6]; Mus musculus, RAW264.7, read-out: Nitrite released, % inhibition, 2 mM, LPS-stimulated, 16-18 h",22%
same,inhibition at 3000 µM,"iNOS [6]; Mus musculus, RAW264.7, read-out: Nitrite released, % inhibition, 3 mM, LPS 100 ng/ml, 16-18 h",32%

# Reference: patent US5759836A, “Osteoarthritis-associated inducable isoform of nitric oxide synthetase” (priority 1995, dated 1998)
